Results taken from patent US20260022098A1, “BULLEYACONITINE A DERIVATIVE WITH ANALGESIC ACTIVITY, AND PREPARATION METHOD AND APPLICATION THEREOF” (priority 2023, published 2026).
Like-named read-outs stand apart in the source and are kept apart here.

Key:
Kunming mice [1] = test: Acute toxicity / median lethal dose (LD50) determination, subcutaneous injection; format: in vivo; design: key to Acute toxicity: if death occurred, (+) represented as positive; if no death occurred, (−) represented as negative; conditions: mice administered 20 mg/kg subcutaneously, presence of death within 24 h
Description: (§1) The experimental animals were Kunming mice (male:female=1:1), weighed 22+2 g, which were provided by Chengdu dossy experimental animals Co., ltd., China. The mice were kept in the animal room of the School of Life Science and Engineering, Southwest Jiaotong University, where the animal room was set at a temperature of 23±2° C., a humidity of […] and a photoperiod of 16:8 h (L:D). Before the experiment, the mice were freely fed for 2-3 days with water and feed to adapt to the new environment. Then, the mice were treated by water and food fasting for 12 h. 10 animals were allocated to each group to ensure that there are at least 6 sets of valid data in each group. The animal experiments were carried out in strict accordance with the national regulations on the management of experimental animals.
(§2) The compounds prepared in the examples provided herein (test sample set) and bulleyaconitine A (positive control set) were all dissolved with 0.1 mol/L HCl according to a molar ratio of 1:1, and then diluted with physiological saline to a concentration to be determined. Blank control was physiological saline containing 0.1 mol/L HCl. The animals in the control groups were subjected to the same treatment as those in experimental groups except that samples to be test were replaced with physiological saline.
(2) Median Lethal Dose (LD50) Determination
The sample to be tested was dissolved with 0.1 mol/L HCl according to the amount of the substance ratio of 1:1, and diluted with physiological saline according to the required concentration. 10 mice in each group were randomly selected, half of which were male and half of which were female, and were placed in independent cages. Each mouse was injected subcutaneously with different sample solutions to be tested according to a dose of 0.1 mL/10 g body weight. In the preliminary toxicity experiment, the measured concentration was 20 mg/kg, and then based on the survival rate of the experimental animals in the preliminary experiment, the sample to be tested was set to at least 5 groups with different concentration dose according to the proportional series. The survival rate of mice within 24 h was recorded. The obtained dose-survival rate data was input into the SPSS software (version 17.2), and the LD50 of the sample was calculated according to the Probit regression method.

Kunming mice [2] = test: Analgesic activity by acetic acid-induced writhing method (writhing inhibition rate, ED50); format: in vivo; conditions: Mus musculus, sc, read-out: Analgesia rate (%) ± SEM
Description: as §1, §2
(1) Determination of Analgesic Activity Through an Acetic Acid-Induced Writhing Method
10 mice were randomly selected, male:female=1:1, were placed in independent cages. Each mouse was injected subcutaneously with the sample solution mentioned above at a dose of 0.1 mL/10 g body weight. After 15 min, a 0.7% acetic acid solution was intraperitoneally injected. A number of writhing reactions in each mouse within 15 minutes was recorded. The group that the mice were injected with physiological saline subcutaneously was the blank group; the group that the mice were injected with the sample to be tested was the experimental group; and the group that the mice were injected with bulleyaconitine A was the positive group. The analgesic activity was represented by a percentage of the reduced number of writhing compared to the blank group (writhing inhibition rate), which were specifically as follows: writhing inhibition rate (analgesic activity)=(average number of writhing times in the blank group-average number of writhing times in the experimental group)/average number of writhing times in the blank group×100%.
Median Effective Dose (ED50) Determination
The sample to be tested was dissolved with 0.1 mol/L HCl according to the amount of the substance ratio of 1:1, and diluted with physiological saline according to the proportional series to obtain at least 5 groups with different dose concentrations. The writhing inhibition rate of each dose group was tested according to the acetic acid-induced writhing method mentioned above. The obtained dose-writhing inhibition data was entered into the statistical product and service solutions (SPSS) software (version 17.2), and the ED50 of the sample to be tested was calculated through the Probit regression method.

Row | SMILES | Acute toxicity (Kunming mice [1]) | inhibition in vivo at 0.05 mg/kg (Kunming mice [2]) | inhibition in vivo at 0.05 mg/kg (Kunming mice [2]; dosing concentration 0.05 mg/kg, subcutaneous, acetic acid-induced writhing, mice)
1 | CCN1C[C@]2(COC)CC[C@H](OC)[C@@]34C5C[C@]6(O)[C@@H](OC)C[C@@](OC)(C5[C@H]6OC(=O)c5ccc(OC)cc5)C([C@H](OC)C23)[C@@H]14 (stereo partly drawn) [Compound 1] | + | 25.5 ± 2.9% | 
2 | CCO[C@]12C[C@H](OC)[C@@]3(OC(=O)C4CC4)CC(C1[C@H]3OC(=O)C1CC1)[C@]13C4[C@@H](OC)C2[C@H]1N(CC)C[C@]4(COC)CC[C@@H]3OC (stereo partly drawn) [Compound 8] | − | 37.1 ± 1.2% | 
3 | CCO[C@]12C[C@H](OC)[C@@]3(OC(=O)c4cccc(C#N)c4)CC(C1[C@H]3OC(=O)c1cccc(C#N)c1)[C@]13C4[C@@H](OC)C2[C@H]1N(CC)C[C@]4(COC)CC[C@@H]3OC (stereo partly drawn) [Compound 95] | − | 23.8 ± 1.1% | 
4 | CCO[C@]12C[C@H](OC)[C@@]3(OC(=O)c4cccc(Br)c4)CC(C1[C@H]3OC(=O)c1cccc(Br)c1)[C@]13C4[C@@H](OC)C2[C@H]1N(CC)C[C@]4(COC)CC[C@@H]3OC (stereo partly drawn) [Compound 70] | − | 5.83 ± 1.7% | 
5 | CCO[C@]12C[C@H](OC)[C@@]3(OC(=O)c4ccccc4C)CC(C1[C@H]3OC(=O)c1ccccc1C)[C@]13C4[C@@H](OC)C2[C@H]1N(CC)C[C@]4(COC)CC[C@@H]3OC (stereo partly drawn) [Compound 75] | − | 10.8 ± 2.2% | 
6 | CCO[C@]12C[C@H](OC)[C@@]3(OC(=O)CC(C)(C)C)CC(C1[C@H]3OC(=O)c1ccc(OC)cc1)[C@@]13C4[C@@H]2[C@H](OC)C1[C@@](COC)(CC[C@@H]3OC)CN4CC (stereo partly drawn) [Compound 89] | − |  | 33.7 ± 2.4%
7 | CCO[C@]12C[C@H](OC)[C@@]3(OC(=O)c4cc(F)cc(F)c4)CC(C1[C@H]3OC(=O)c1cc(F)cc(F)c1)[C@]13C4[C@@H](OC)C2[C@H]1N(CC)C[C@]4(COC)CC[C@@H]3OC (stereo partly drawn) [Compound 74] | − | 23.9 ± 2.8% | 
8 | CCO[C@]12C[C@H](OC)[C@@]3(OC(=O)c4cccc(F)c4)CC(C1[C@H]3OC(=O)c1cccc(F)c1)[C@]13C4[C@@H](OC)C2[C@H]1N(CC)C[C@]4(COC)CC[C@@H]3OC (stereo partly drawn) [Compound 72] | − | 24.7 ± 2% | 
9 | CCO[C@]12C[C@H](OC)[C@@]3(OC(=O)Cc4cccs4)CC(C1[C@H]3OC(=O)Cc1cccs1)[C@]13C4[C@@H](OC)C2[C@H]1N(CC)C[C@]4(COC)CC[C@@H]3OC (stereo partly drawn) [Compound 93] | − | 10.5 ± 2.3% | 
10 | CCO[C@]12C[C@H](OC)[C@@]3(OC(=O)c4cc([N+](=O)[O-])cc([N+](=O)[O-])c4)CC(C1[C@H]3OC(=O)c1cc([N+](=O)[O-])cc([N+](=O)[O-])c1)[C@]13C4[C@@H](OC)C2[C@H]1N(CC)C[C@]4(COC)CC[C@@H]3OC (stereo partly drawn) [Compound 96] | − | 30.1 ± 1.3% | 
11 | CCN1C[C@]2(COC)CC[C@H](OC)[C@@]34C5C[C@]6(OC(=O)c7ccc(OC)cc7)[C@@H](OC)C[C@@](OC(C)=O)(C5[C@H]6OC(=O)c5ccc(OC)cc5)C([C@H](OC)C23)[C@@H]14 (stereo partly drawn) [Compound 9] | − | 33.5 ± 1.9% | 
12 | CCN1C[C@]2(COC)CC[C@H](OC)[C@@]34C5C[C@]6(OC(=O)c7ccccc7)[C@@H](OC)C[C@@](OC(C)=O)(C5[C@H]6OC(=O)c5ccc(OC)cc5)C([C@H](OC)C23)[C@@H]14 (stereo partly drawn) [Compound 54] | − | 0% | 
13 | CCN1C[C@]2(COC)CC[C@H](OC)[C@@]34C5C[C@]6(OC(=O)c7ccc(OC)cc7)[C@@H](OC)C[C@@](OC)(C5[C@H]6OC(=O)c5ccc(OC)cc5)C([C@H](OC)C23)[C@@H]14 (stereo partly drawn) [Compound 31] | − | 17 ± 2.2% | 
14 | CCN1C[C@]2(COC)CC[C@H](OC)[C@@]34C5C[C@]6(OC(C)=O)[C@@H](OC)C[C@@](OC(C)=O)(C5[C@H]6OC(=O)c5ccc(OC)cc5)C([C@H](OC)C23)[C@@H]14 (stereo partly drawn) [Compound 43] | − | 4.92 ± 1.5% | 
15 | C/C=C/C(=O)O[C@@H]1C2C3C[C@]1(OC(=O)/C=C/C)[C@@H](OC)C[C@]2(OCC)C1[C@H](OC)C2[C@@]4(COC)CC[C@H](OC)[C@@]32[C@@H]1N(CC)C4 (stereo partly drawn) [Compound 85] | − | 22.4 ± 3.3% | 
16 | CCN1C[C@]2(COC)CC[C@H](OC)[C@@]34C5C[C@]6(OC(=O)c7ccco7)[C@@H](OC)C[C@@](OC)(C5[C@H]6OC(=O)c5ccc(OC)cc5)C([C@H](OC)C23)[C@@H]14 (stereo partly drawn) [Compound 33] | − | 30.2 ± 2.6% | 
17 | CCO[C@]12C[C@H](OC)[C@@]3(OC(=O)C(C)C)CC(C1[C@H]3OC(=O)C(C)C)[C@]13C4[C@@H](OC)C2[C@H]1N(CC)C[C@]4(COC)CC[C@@H]3OC (stereo partly drawn) [Compound 80] | − | 19.1 ± 2.1% | 
18 | CCN1C[C@]2(COC)CC[C@H](OC)[C@@]34C5C[C@]6(OC(C)=O)[C@@H](OC)C[C@@](OC)(C5[C@H]6OC(=O)c5ccc(OC)cc5)C([C@H](OC)C23)[C@@H]14 (stereo partly drawn) [Compound 45] | − | 21.6 ± 1.3% | 
19 | CCN1C[C@]2(COC)CC[C@H](OC)[C@@]34C5C[C@]6(OC(=O)C7CCOCC7)[C@@H](OC)C[C@@](OC)(C5[C@H]6OC(=O)C5CCOCC5)C([C@H](OC)C23)[C@@H]14 (stereo partly drawn) [Compound 26] | − | 30.5 ± 1% | 
20 | CCO[C@]12C[C@H](OC)[C@@]3(OC(=O)c4ccc(C)cc4)CC(C1[C@H]3OC(=O)c1ccc(C)cc1)[C@]13C4[C@@H](OC)C2[C@H]1N(CC)C[C@]4(COC)CC[C@@H]3OC (stereo partly drawn) [Compound 56] | − | 11.4 ± 2% | 
21 | CCO[C@]12C[C@H](OC)[C@@]3(OC(C)=O)CC(C1[C@H]3OC(C)=O)[C@]13C4[C@@H](OC)C2[C@H]1N(CC)C[C@]4(COC)CC[C@@H]3OC (stereo partly drawn) [Compound 41] | − | 18.5 ± 2.1% | 
22 | CCN1C[C@]2(COC)CC[C@H](OC)[C@@]34C5C[C@]6(OC(=O)c7ccc(F)cc7)[C@@H](OC)C[C@@](OC(C)=O)(C5[C@H]6OC(=O)c5ccc(OC)cc5)C([C@H](OC)C23)[C@@H]14 (stereo partly drawn) [Compound 61] | − | 34 ± 1.9% | 
23 | CCO[C@]12C[C@H](OC)[C@@]3(OC(=O)c4ccc(Cl)cc4Cl)CC(C1[C@H]3OC(=O)c1ccc(Cl)cc1Cl)[C@]13C4[C@@H](OC)C2[C@H]1N(CC)C[C@]4(COC)CC[C@@H]3OC (stereo partly drawn) [Compound 73] | − | 33.5 ± 2.7% | 
24 | CCO[C@]12C[C@H](OC)[C@@]3(O)CC(C1[C@H]3OC(=O)c1ccc(OC)cc1)[C@]13C4[C@@H](OC)C2[C@H]1N(CC)C[C@]4(COC)CC[C@@H]3OC (stereo partly drawn) [Compound 2] | + | 41.1 ± 1.8% | 
25 | CCCC(=O)O[C@]12CC3C([C@H]1OC(=O)c1ccc(OC)cc1)[C@](OCC)(C[C@@H]2OC)C1[C@H](OC)C2[C@@]4(COC)CC[C@H](OC)[C@@]32[C@@H]1N(CC)C4 (stereo partly drawn) [Compound 78] | − | 31.7 ± 1.4% | 
26 | CCN1C[C@]2(COC)CC[C@H](OC)[C@@]34C5C[C@]6(OC(=O)c7ccc([N+](=O)[O-])cc7)[C@@H](OC)C[C@@](OC(C)=O)(C5[C@H]6OC(=O)c5ccc(OC)cc5)C([C@H](OC)C23)[C@@H]14 (stereo partly drawn) [Compound 40] | − | 31.9 ± 1.8% | 
27 | CCO[C@]12C[C@H](OC)[C@@]3(OC(=O)c4cccc(C)c4)CC(C1[C@H]3OC(=O)c1cccc(C)c1)[C@]13C4[C@@H](OC)C2[C@H]1N(CC)C[C@]4(COC)CC[C@@H]3OC (stereo partly drawn) [Compound 62] | − | 15 ± 2.4% | 
